Results published in the CombiSolv-Exp solvation set (Vermeire and Green 2021).
Blank lines part the entries; values can stand above or below the compound they belong to.

Assay: solvent given as SMILES
[1] = in CCCCCCCCC=CCCCCCCCC(=O)OCC(COC(=O)CCCCCCCC=CCCCCCCCC)OC(=O)CCCCCCCC=CCCCCCCCC

Compound: Cc1cc(C)c(C)cc1C
- solvation free energy, 298 K (in CC(C)(C)O): -6.62 kcal/mol
- solvation free energy, 298 K (in CC(C)CC(C)(C)C): -7.1 kcal/mol
- solvation free energy, 298 K (in CC(C)CC(C)O): -6.69 kcal/mol
- solvation free energy, 298 K (in CC(C)CCO): -6.63 kcal/mol
- solvation free energy, 298 K (in CC(C)CO): -6.52 kcal/mol
- solvation free energy, 298 K (in CC(C)O): -6.49 kcal/mol
- solvation free energy, 298 K (in CCC(C)O): -6.62 kcal/mol
- solvation free energy, 298 K (in CCCC(C)O): -6.69 kcal/mol
- solvation free energy, 298 K (in CCCCCC): -7.24 kcal/mol
- solvation free energy, 298 K (in CCCCCCC): -7.19 kcal/mol
- solvation free energy, 298 K (in CCCCCCCC): -7.14 kcal/mol
- solvation free energy, 298 K [1]: -7.13 kcal/mol
- solvation free energy, 298 K (in CCCCCCCCCC): -7.08 kcal/mol
- solvation free energy, 298 K (in CCCCCCCCCCO): -6.84 kcal/mol
- solvation free energy, 298 K (in CCCCCCCCO): -6.81 kcal/mol
- solvation free energy, 298 K (in CCCCCCCO): -6.78 kcal/mol
- solvation free energy, 298 K (in CCCCCCO): -6.75 kcal/mol
- solvation free energy, 298 K (in CCCCCO): -6.71 kcal/mol
- solvation free energy, 298 K (in CCCCO): -6.71 kcal/mol
- solvation free energy, 298 K (in CCCCOCCCC): -7.19 kcal/mol
- solvation free energy, 298 K (in CCCO): -6.54 kcal/mol
- solvation free energy, 298 K (in CCO): -6.44 kcal/mol
- solvation free energy, 298 K (in CCOCC): -7.34 kcal/mol
- solvation free energy, 298 K (in CO): -6.18 kcal/mol
- solvation free energy, 298 K (in O): -0.72 kcal/mol

Compound: COc1ccccc1N
- solvation free energy, 298 K (in O): -6.12 kcal/mol

- solvation free energy, 298 K (in C=CCCCCCCCCCCCCCC): -3.78 kcal/mol
- solvation free energy, 298 K (in O): 0.2 kcal/mol
Compound: C=CC=CC=C

- solvation free energy, 298 K (in O): -0.8 kcal/mol
Compound: COC(OC)(OC)C(F)(F)F

- solvation free energy, 298 K (in O): 0.25 kcal/mol
Compound: C=C(C)C1CCC(C)C12CC=C(C)CC2 (centres undefined)

Compound: CCc1cccc2ccccc12
- solvation free energy, 298 K (in O): -2.3 kcal/mol

- solvation free energy, 298 K (in O): -7.98 kcal/mol
Compound: CN1CCCC1c1cccnc1 (centres undefined)

- solvation free energy, 298 K (in O): -3.41 kcal/mol
Compound: CC(=O)OC(C)(C)C1CC=C(C)CC1 (centres undefined)

- solvation free energy, 298 K (in O): -2.53 kcal/mol
Compound: C=C(C)C(=O)OC

Compound: CC=CC
- solvation free energy, 298 K (in CC(=O)N(C)C): -2.17 kcal/mol
- solvation free energy, 298 K (in CC(C)=O): -2.47 kcal/mol
- solvation free energy, 298 K (in CCOC(C)=O): -2.77 kcal/mol
- solvation free energy, 298 K (in CN(C)C=O): -2.11 kcal/mol
- solvation free energy, 298 K (in O): 1.34 kcal/mol
- solvation free energy, 298 K (in O=CN1CCOCC1): -1.45 kcal/mol

- solvation free energy, 298 K (in O): -3.87 kcal/mol
Compound: C=C(C)C1CC=C(C)C(OC(=O)CC)C1 (centres undefined)

- solvation free energy, 298 K (in O): -1.35 kcal/mol
Compound: C=C(C)C1=CC=C(C)CC1

Compound: ClC(Cl)(Cl)Br
- solvation free energy, 298 K (in CS(C)=O): -4.78 kcal/mol

- solvation free energy, 298 K (in O): -10.5 kcal/mol
Compound: CNc1nc(NC(C)C)nc(SC)n1

Compound: CCOC(C)=O
- solvation free energy, 298 K (in Brc1cccc2ccccc12): -3.95 kcal/mol
- solvation free energy, 298 K (in C1CCOC1): -4.56 kcal/mol
- solvation free energy, 298 K (in C1COCCO1): -4.49 kcal/mol
- solvation free energy, 298 K (in C=CCCCCCCCCCCCCCC): -3.23 kcal/mol
- solvation free energy, 298 K (in CC(=O)N(C)C): -4.23 kcal/mol
- solvation free energy, 298 K (in CC(=O)OCc1ccccc1): -4.29 kcal/mol
- solvation free energy, 298 K (in CC(C)CC(C)(C)C): -3.53 kcal/mol
- solvation free energy, 298 K (in CC(C)CCCC(C)CCCC(C)CCCCC(C)CCCC(C)CCCC(C)C): -3.2 kcal/mol
- solvation free energy, 298 K (in CC(C)O): -3.9 kcal/mol
- solvation free energy, 298 K (in CCC(C)=O): -4.49 kcal/mol
- solvation free energy, 298 K (in CCCC=O): -4.49 kcal/mol
- solvation free energy, 298 K (in CCCCC(CC)COC(=O)CCCCC(=O)OCC(CC)CCCC): -3.73 kcal/mol
- solvation free energy, 298 K (in CCCCCC): -3.61 kcal/mol
- solvation free energy, 298 K (in CCCCCC=CCC=CCCCCCCCC(=O)O): -3.67 kcal/mol
- solvation free energy, 298 K (in CCCCCCC): -3.53 kcal/mol
- solvation free energy, 298 K (in CCCCCCCC): -3.4 kcal/mol
- solvation free energy, 298 K [1]: -3.72 kcal/mol
- solvation free energy, 298 K (in CCCCCCCCCC): -3.28 kcal/mol
- solvation free energy, 298 K (in CCCCCCCCCCCCCC): -3.24 kcal/mol
- solvation free energy, 298 K (in CCCCCCCCCCCCCCCC): -3.23 kcal/mol
- solvation free energy, 298 K (in CCCCCCCCO): -3.69 kcal/mol
- solvation free energy, 298 K (in CCCCCO): -3.87 kcal/mol
- solvation free energy, 298 K (in CCCCCl): -4.32 kcal/mol
- solvation free energy, 298 K (in CCCCN(C=O)CCCC): -3.96 kcal/mol
- solvation free energy, 298 K (in CCCCO): -3.97 kcal/mol
- solvation free energy, 298 K (in CCO): -4.06 kcal/mol
- solvation free energy, 298 K (in CCOC(=O)c1ccccc1C(=O)OCC): -3.94 kcal/mol
- solvation free energy, 298 K (in CCOCCO): -4.14 kcal/mol
- solvation free energy, 298 K (in CCOP(=O)(OCC)OCC): -4.13 kcal/mol
- solvation free energy, 298 K (in CN1CCCC1=O): -4.16 kcal/mol
- solvation free energy, 298 K (in CN1CCCCC1=O): -4.16 kcal/mol
- solvation free energy, 298 K (in CN1CCN(C)C1=O): -3.98 kcal/mol
- solvation free energy, 298 K (in CN(C)C=O): -4.32 kcal/mol
- solvation free energy, 298 K (in CNC(C)=O): -4.04 kcal/mol
- solvation free energy, 298 K (in CO): -4.38 kcal/mol
- solvation free energy, 298 K (in COP(=O)(OC)OC): -4.28 kcal/mol
- solvation free energy, 298 K (in CS(C)=O): -3.88 kcal/mol
- solvation free energy, 298 K (in Cc1ccc(C)cc1): -4.21 kcal/mol
- solvation free energy, 298 K (in Cc1cccc(C)c1): -4.15 kcal/mol
- solvation free energy, 298 K (in ClCCCl): -4.71 kcal/mol
- solvation free energy, 298 K (in ClCCl): -5.22 kcal/mol
- solvation free energy, 298 K (in Clc1ccccc1): -4.43 kcal/mol
- solvation free energy, 298 K (in NC=O): -3.61 kcal/mol
- solvation free energy, 298 K (in O): -2.95 kcal/mol
- solvation free energy, 298 K (in O=C1CCCCC1): -4.33 kcal/mol
- solvation free energy, 298 K (in O=CN1CCOCC1): -3.89 kcal/mol
- solvation free energy, 298 K (in OCCOCCO): -3.53 kcal/mol
- solvation free energy, 298 K (in [2H]O[2H]): -3.02 kcal/mol
- solvation free energy, 298 K (in c1ccc2ncccc2c1): -4.07 kcal/mol

Compound: OC(Cl)CCCl (centres undefined)
- solvation free energy, 298 K (in CCCCCCCCCCO): -7 kcal/mol

- solvation free energy, 298 K (in N#Cc1ccccc1): -3.26 kcal/mol
Compound: C=CC=CC

Compound: Cc1cccc2ccccc12
- solvation free energy, 298 K (in CCO): -7.47 kcal/mol
- solvation free energy, 298 K (in O): -2.32 kcal/mol
- solvation free energy, 298 K (in OCCOCCO): -7.33 kcal/mol

- solvation free energy, 298 K (in O): -0.38 kcal/mol
Compound: CC1=CCC2C(C)=CCC(C(C)C)C2C1 (centres undefined)
